Experimental data reported in patent publication US7960131B2, “Functional genomic pore assay for mixed cell populations” (Wisconsin Alumni Research Foundation, priority 2003, dated 2011).
Several values for one entry are separate records, joined by “and”; a condition that tells them apart may be missing. Equal entries are not always repeated.

Key:
[1] = target: T1, P2X7 (Homo sapiens, UniProt Q99572); assay: YO-PRO-1 plate assay of P2X7 agonists with astrocytoma cell line 1321N1; assay type: cell-based; conditions: for YO-PRO-1 fluorescence (485/20, 528/20), single well: 5 × 10^4 1321N1 cells; for YO-PRO-1 fluorescence, average of duplicate wells: 1321N1 cells;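 on all read-outs here: dye uptake read after 20 min agonist exposure with YO-PRO-1 present, unbound dye removed by washing before reading in a fluorescence plate reader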
T1 construct: host or cells: astrocytoma cell line (the earlier reading names it 1321N1)
T1 sequence (Q99572 1-595): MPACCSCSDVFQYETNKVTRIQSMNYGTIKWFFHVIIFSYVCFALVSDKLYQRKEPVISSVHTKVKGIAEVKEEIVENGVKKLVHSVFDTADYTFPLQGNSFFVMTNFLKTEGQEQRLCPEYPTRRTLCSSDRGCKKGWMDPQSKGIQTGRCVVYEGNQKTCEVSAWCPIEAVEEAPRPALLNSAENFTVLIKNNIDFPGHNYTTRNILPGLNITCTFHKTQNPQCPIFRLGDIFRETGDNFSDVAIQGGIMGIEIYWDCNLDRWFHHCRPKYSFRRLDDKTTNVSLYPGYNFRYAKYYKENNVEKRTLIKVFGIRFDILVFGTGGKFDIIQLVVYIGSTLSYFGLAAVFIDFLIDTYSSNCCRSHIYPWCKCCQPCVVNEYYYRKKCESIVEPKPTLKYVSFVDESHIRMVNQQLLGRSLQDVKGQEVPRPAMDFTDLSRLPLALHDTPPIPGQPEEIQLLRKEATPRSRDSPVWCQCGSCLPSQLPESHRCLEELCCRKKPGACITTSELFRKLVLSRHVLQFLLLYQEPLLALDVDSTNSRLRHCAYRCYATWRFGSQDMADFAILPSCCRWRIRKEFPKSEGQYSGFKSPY

[2] = test system: animal model of severe sepsis; conditions: co-administration, mice; cited from earlier work

| SMILES | YO-PRO-1 fluorescence (485/20, 528/20), single well ([1]; agent 3 μM + YOPRO) | YO-PRO-1 fluorescence (485/20, 528/20), single well ([1]; agent 10 μM + YOPRO) | YO-PRO-1 fluorescence (485/20, 528/20), single well ([1]; agent 30 μM + YOPRO) | YO-PRO-1 fluorescence (485/20, 528/20), single well ([1]; agent 100 μM + YOPRO) | YO-PRO-1 fluorescence (485/20, 528/20), single well ([1]; agent 300 μM + YOPRO) | YO-PRO-1 fluorescence, average of duplicate wells ([1]; 1 uM, agent + YOPRO) | YO-PRO-1 fluorescence, average of duplicate wells ([1]; 3 uM, agent + YOPRO) | other results |
| --- | --- | --- | --- | --- | --- | --- | --- | --- |
| CSc1nc(N)c2ncn([C@@H]3O[C@H](COP(=O)(O)OP(=O)(O)OP(=O)(O)O)[C@@H](O)[C@H]3O)c2n1 [2MeSATP, 2-methylthio-adenosine 5′-triphosphate] | 109 and 102 | 144 | 157 and 154 | 155 and 170 | 168 and 162 | 105.5 | 144 | YO-PRO-1 fluorescence (485/20, 528/20), single well ([1]; agent 1 mM + YOPRO): 161 and 164; LPS-induced serum levels of TNF-alpha and IL-1 [2]: reductions in LPS-induced serum levels of TNF-alpha and IL-1; protection from endotoxic death [2]: protects mice from endotoxic death |
| Nc1ncnc2c1ncn2[C@@H]1O[C@H](COP(=O)(O)OP(=O)(O)NP(=O)(O)O)[C@@H](O)[C@H]1O [AMPPNP, adenosine 5′(beta,gamma-imido)triphosphate] | – | – | – | – | 75 and 86 | – | – | – |
| CN([C@@H](Cc1ccc(OS(=O)(=O)c2cccc3cnccc23)cc1)C(=O)N1CCN(c2ccccc2)CC1)S(=O)(=O)c1cccc2cnccc12 [KN62] | – | – | – | – | – | – | – | YO-PRO-1 fluorescence (485/20, 528/20), single well ([1]; 1 mM ATP + KN62 1 μM + YOPRO): 185 and 177; YO-PRO-1 fluorescence (485/20, 528/20), single well ([1]; 1 mM ATP + KN62 3 μM + YOPRO): 181 and 176; YO-PRO-1 fluorescence (485/20, 528/20), single well ([1]; 1 mM ATP + KN62 10 μM + YOPRO): 159; YO-PRO-1 fluorescence (485/20, 528/20), single well ([1]; 1 mM ATP + KN62 30 μM + YOPRO): 155 and 153; YO-PRO-1 fluorescence (485/20, 528/20), single well ([1]; 1 mM ATP + KN62 100 μM + YOPRO): 148; YO-PRO-1 fluorescence (485/20, 528/20), single well ([1]; 1 mM ATP + KN62 300 μM + YOPRO): 152 and 165; YO-PRO-1 fluorescence, average of duplicate wells ([1]; 1 mM ATP + KN62 1 uM + YOPRO): 181; YO-PRO-1 fluorescence, average of duplicate wells ([1]; 1 mM ATP + KN62 3 uM + YOPRO): 178.5 |
| O=c1ccn([C@@H]2O[C@H](COP(=O)(O)OP(=O)(O)OP(=O)(O)O)[C@@H](O)[C@H]2O)c(=O)[nH]1 [UTP] | – | – | – | – | 72 and 73 | – | – | – |
| Nc1ncnc2c1ncn2[C@@H]1O[C@H](COP(=O)(O)CP(=O)(O)OP(=O)(O)O)[C@@H](O)[C@H]1O [ab-CH2-ATP] | 68 and 69 | 74 | 74 and 78 | 89 and 83 | 101 and 116 | 67.5 | 68.5 | YO-PRO-1 fluorescence (485/20, 528/20), single well ([1]; agent 1 μM + YOPRO): 68 and 67 |
